The source made the active and inactive calls. The rule behind the calls is not given here.
Columns and labels:
Assay type in all cases: functional
Rattus norvegicus [1] = assay: Antiallergic activity in Sprague-Dawley rat assessed as inhibition of mouse antiserum-induced passive cutaneous anaphylaxis at 100 mg/kg, po administered 1 hr before antiserum challenge measured after 3 hrs by Evans blue staining relative to control
Rattus norvegicus [2] = assay: Antiallergic activity in Sprague-Dawley rat assessed as inhibition of mouse antiserum-induced passive cutaneous anaphylaxis at 25 mg/kg, po administered 1 hr before antiserum challenge measured after 30 mins by Evans blue staining relative to control; conditions: read-out: INH
Rattus norvegicus [3] = assay: Antiallergic activity in Sprague-Dawley rat assessed as inhibition of mouse antiserum-induced passive cutaneous anaphylaxis at 50 mg/kg, po administered 1 hr before antiserum challenge measured after 30 mins by Evans blue staining relative to control; conditions: read-out: INH
Rattus norvegicus [4] = assay: Antiallergic activity in Sprague-Dawley rat assessed as inhibition of mouse antiserum-induced passive cutaneous anaphylaxis at 200 mg/kg, po administered 1 hr before antiserum challenge measured after 6 hrs by Evans blue staining relative to control; conditions: read-out: INH
Rattus norvegicus [5] = assay: Antiallergic activity in po dosed Sprague-Dawley rat assessed as inhibition of mouse antiserum-induced passive cutaneous anaphylaxis administered 1 hr before antiserum challenge measured after 30 mins by Evans blue staining
Rattus norvegicus [6] = assay: Antiallergic activity in Sprague-Dawley rat assessed as inhibition of mouse antiserum-induced passive cutaneous anaphylaxis at 5 to 6 times ED50 mg/kg, po administered 1 hr before antiserum challenge measured after 30 mins by Evans blue staining relative to control

Row | SMILES | inhibition (Rattus norvegicus [1]) | inhibition in vivo at 25 mg/kg (Rattus norvegicus [2]) | inhibition in vivo at 50 mg/kg (Rattus norvegicus [3]) | inhibition in vivo at 100 mg/kg (Rattus norvegicus [1]; read-out: INH) | inhibition in vivo at 200 mg/kg (Rattus norvegicus [4]) | ED50 (Rattus norvegicus [5]) | inhibition (INH) (Rattus norvegicus [6])
1 | Cn1cc2c(n1)[C@H]1CCc3cn(C)nc3[C@@H]1CC2 | inactive | – | – | – | – | – | –
2 | c1[nH]nc2c1CC[C@H]1c3n[nH]cc3CC[C@H]21 | – | 33% | 61% | 65% | 63% | 35 mg/kg | 60%
3 | c1ccc(-n2ncc3c2[C@H]2CCc4cnn(-c5ccccc5)c4[C@@H]2CC3)cc1 | inactive | – | – | – | – | – | –

— ChEMBL document CHEMBL3244328, “trans-2,3b,4,5,7,8b,9,10-Octahydronaphtho[1,2-c:5,6-c']dipyrazole, a new orally active antiallergic compound” (1978)
